Reference: patent publication US9243270B2, “Method for producing metabolites from omeprazole using bacterial cytochrome P450, and composition for same” (priority 2012, dated 2016)
“Also recorded” adds a separate entry of the source.

What was measured:
[1] = biological target: human CYP2C19 (Homo sapiens, UniProt P33261); assay: Oxidation of omeprazole by human CYP2C19, metabolites by HPLC and LC-MS; format: in vitro ADME; conditions: human CYP2C19, 100 μM omeprazole, NADPH-generating system, 37° C., 30 minutes
human CYP2C19, sequence (P33261 whole entry): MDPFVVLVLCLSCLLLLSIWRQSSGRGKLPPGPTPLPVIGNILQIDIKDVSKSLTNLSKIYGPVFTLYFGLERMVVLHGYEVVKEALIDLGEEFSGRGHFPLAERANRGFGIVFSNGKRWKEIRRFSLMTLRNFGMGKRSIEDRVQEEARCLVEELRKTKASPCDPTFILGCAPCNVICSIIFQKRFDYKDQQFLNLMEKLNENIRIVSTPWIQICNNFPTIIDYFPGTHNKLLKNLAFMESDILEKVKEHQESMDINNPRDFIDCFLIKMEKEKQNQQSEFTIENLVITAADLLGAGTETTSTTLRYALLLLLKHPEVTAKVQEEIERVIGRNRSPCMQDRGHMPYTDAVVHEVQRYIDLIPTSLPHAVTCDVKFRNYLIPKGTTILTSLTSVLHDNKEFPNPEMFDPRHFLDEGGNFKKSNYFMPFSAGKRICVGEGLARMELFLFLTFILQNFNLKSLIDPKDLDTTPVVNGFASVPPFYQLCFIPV
Method: (§1) CYP102A1 50 pmol and 100 μM substrates were put into 100 mM of a potassium phosphate buffer (pH 7.4) 0.25 me and were subjected to a typical steady state reaction. In order to initiate the reaction, an NADPH-generating system (final concentration: 10 mM glucose 6-phosphate, 0.5 mM NADP^+, and 1 IU yeast glucose 6-phosphate dehydrogenase per 1 me) was added. 20 mM omeprazole solution was prepared by DMSO, and diluted with an enzyme reaction solution so that an organic solvent has the final concentration of 1%(v/v) or less. For measuring an activity of human CYP2C19, 50 pmol P450, 100 pmol NADPH-P450 reductase (CPR), 100 pmol cytochrome b5 and 45 μM L-α-dilauroyl-sn-glycero-3-phosphocholine (DLPC) were used instead of 50 pmol CYP102A1. The reaction solution was reacted at 37 for 30 minutes, and the reaction was terminated by dichloromethane prepared in a cold state with twice amounts of ice.
(§2) The reaction mixture was centrifuged to remove the supernatant, the solvent thereof was evaporated under nitrogen gas (see Vickers et al., 1990), and the obtained mixture was analyzed by HPLC (see Piver et al., 2004). A sample (30 μl) was injected into Gemini C18 column (4.6 mm×150 mm, 5 μm, Phenomenex, Torrance, Calif.). 30% acetonitrile was used as a mobile phase.

[2] = tested on: CYP102A1 (P450 BM3); conditions: bacterial wild-type CYP102A1 and mutants, 100 μM omeprazole, NADPH-generating system
Method: as §1, §2

[3] = Total turnover number (TTN) of omeprazole oxidation by CYP102A1 enzymes, HPLC; format: biochemical, Bacillus megaterium; conditions: 0.1 mM to 2 mM omeprazole, 30 minutes up to 5 hours, NADPH-generating system
Method: 30% acetonitrile was used as a mobile phase.
It could be confirmed from the results of FIG. 5 that the turnover number of the wild-type CYP102A1, 17 kinds of mutants thereof, and 6 kinds of mutant kimeras varied at a large range. In addition, the total turnover number (TTNs) (mol product/mol catalyst) of the CYP102A1 mutant was investigated. In order to measure TTNs of the CYP102A1 mutant, 0.1 mM to 2 mM omeprazole was used, and the reaction was performed with an interval from 30 minutes up to 5 hours. The production rate of the omeprazole metabolite was determined by HPLC.

Q: For COc1ccc2[nH]c([S+]([O-])Cc3ncc(C)c(OC)c3C)nc2c1 (racemic) [omeprazole], which “main metabolites produced from omeprazole” value [1] is on record?
A: Its value is 3′-hydroxyomeprazole and 5′-hydroxyomeprazole.

Q: And the “main product produced from omeprazole” value [2]?
A: The value was 5′-hydroxyomeprazole.

B1: wild-type CYP102A1: bacterial cytochrome P450 BM3 (CYP102A1) from Bacillus megaterium, SEQ ID NO: 16 (protein)
chain: MTIKEMPQPKTFGELKNLPLLNTDKPVQALMKIADELGEIFKFEAPGRVTRYLSSQRLIKEACDESRFDKNLSQALKFVRDFAGDGLFTSWTHEKNWKKAHNILLPSFSQQAMKGYHAMMVDIAVQLVQKWERLNADEHIEVPEDMTRLTLDTIGLCGFNYRFNSFYRDQPHPFITSMVRALDEAMNKLQRANPDDPAYDENKRQFQEDIKVMNDLVDKIIADRKASGEQSDDLLTHMLNGKDPETGEPLDDENIRYQIITFLIAGHETTSGLLSFALYFLVKNPHVLQKAAEEAARVLVDPVPSYKQVKQLKYVGMVLNEALRLWPTAPAFSLYAKEDTVLGGEYPLEKGDELMVLIPQLHRDKTIWGDDVEEFRPERFENPSAIPQHAFKPFGNGQRACIGQQFALHEATLVLGMMLKHFDFEDHTNYELDIKETLTLKPEGFVVKAKSKKIPLGGIPSPSTEQSAKKVRKKAENAHNTPLLVLYGSNMGTAEGTARDLADIAMSKGFAPQVATLDSHAGNLPREGAVLIVTASYNGHPPDNAKQFVDWLDQASADEVKGVRYSVFGCGDKNWATTYQKVPAFIDETLAAKGAENIADRGEADASDDFEGTYEEWREHMWSDVAAYFNLDIENSEDNKSTLSLQFVDSAADMPLAKMHGAFSTNVVASKELQQPGSARSTRHLEIELPKEASYQEGDHLGVIPRNYEGIVNRVTARFGLDASQQIRLEAEEEKLAHLPLAKTVSVEELLQYVELQDPVTRTQLRAMAAKTVCPPHKVELEALLEKQAYKEQVLAKRLTMLELLEKYPACEMKFSEFIALLPSIRPRYYSISSSPRVDEKQASITVSVVSGEAWSGYGEYKGIASNYLAELQEGDTITCFISTPQSEFTLPKDPETPLIMVGPGTGVAPFRGFVQARKQLKEQGQSLGEAHLYFGCRSPHEDYLYQEELENAQSEGIITLHTAFSRMPNQPKTYVQHVMEQDGKKLIELLDQGAHFYICGDGSQMAPAVEATLMKSYADVHQVSEADARLWLQQLEEKGRYAKDVWAG
Q: For B1, which “total turnover number (TTNs), activity towards omeprazole” value [3] is on record?
A: The value was “the activity with respect to the omeprazole was hardly shown; also recorded: hardly had an activity with respect to omeprazole”.
